26 molecules from patent US8815875B2 (Merck Sharp & Dohme Corp., priority 2008, dated 2014) can be followed below.

One experiment deals with FABP5 (Homo sapiens, UniProt Q01469). Nature of the experiment: TdCD (Temperature-dependent Circular Dichroism) assay, FABP5. Type of experiment: binding. As to conditions: T=20° C.; compounds tested at 50 μM and 25 μM. The source says:
[formula] (see Brandts et al and Mayhood et al, shown above) where ΔHL (T) is the van't Hoff enthalpy of ligand binding at temperature T and ΔCpL is the heat capacity upon ligand binding. For simplicity, the ΔCpL and ΔHL (T) were set to zero and −7 kcal/mol respectively. […] TdCD (Temperature-dependent Circular Dichroism) Assay for FABP3/4/5
JASCO 810 spectropolarimeter was used to measure Circular Dichroism (CD) spectra and temperature-dependent protein unfolding profiles. The instrument is equipped with a 6-cell piezoelectric temperature controller. Ellipticity was monitored at 226 nm as a function of temperature with a 1 mm path length cell. The scan rate was 1° C./min with a 4 s response time and 30 s equilibration between measurements.
10 mM stocks of individual compounds were made in 100% DMSO. […] DMSO was added to protein-alone (apo) samples to 1% to compensate for DMSO amounts in protein+ligand samples.
Briefly, the To (midpoint of unfolding for the unliganded protein) was calculated from best fit of the unfolding data to the equation below:
[formula] Where, Yobs is the observed ellipticity value at any temperature T, Yn and Yu are the predicted ellipticity values for fully folded and unfolded species, respectively, mn and mu are slope correction for changes in Yn and Yu with respect to changes in temperature. T0 is the midpoint temperature at which the unliganded protein unfolds and ΔHu and ΔCpu are the heat of unfolding and heat capacity of unfolding, respectively for the unliganded species.
In presence of ligand, the midpoint temperature (Tm) defines where the equilibrium concentrations of unfolded and folded species are equal. Incorporation of the unliganded free energy of binding and subsequent thermodynamic substitution yielded the binding constant of the ligand at the Tm value of unfolding:
[formula] where, T0 is the midpoint of unfolding for unliganded protein and Tm is the midpoint of unfolding in presence of ligand. [LTm] is free ligand at Tm.
Based on estimates for enthalpy of binding, ΔHL (estimated to be −7 kcal/mol) and ligand binding heat capacity ΔCpL (set to be zero), the ligand binding association constant (KL) at temperature T=20° C. were calculated as below.

The target of a further experiment is FABP4 (Homo sapiens, UniProt P15090). The experiment is described as follows: TdF (Temperature Dependence Fluorescence) assay, thermal shift, FABP4. It counts as binding. The method in brief: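 Binding measured as ΔTm versus protein alone; binding constants derived by nonlinear fitting with ΔHL set to −7 kcal/mol and ΔCpL to zero.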
FABP4, sequence (P15090 whole entry, species assumed): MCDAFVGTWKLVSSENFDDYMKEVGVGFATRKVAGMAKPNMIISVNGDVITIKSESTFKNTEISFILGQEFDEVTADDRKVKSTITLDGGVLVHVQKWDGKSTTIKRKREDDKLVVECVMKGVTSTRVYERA

FABP5, sequence (Q01469 whole entry, species assumed): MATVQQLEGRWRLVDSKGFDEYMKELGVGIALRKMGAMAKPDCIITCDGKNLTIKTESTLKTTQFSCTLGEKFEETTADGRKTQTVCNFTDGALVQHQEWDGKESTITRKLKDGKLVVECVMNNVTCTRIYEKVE

`Cc1c(Cl)cccc1N(C)Cc1cc(=O)n2nc(-c3ccccc3)nc2[nH]1` [6-4] yielded a Kd on FABP5 of over 500 nM. On FABP4, the “FABP4 TdF Kd” value is reported as “B (0.5 ≦ B < 0.001 μM)”.

Molecule `O=c1c(Cl)c(COc2cccc(Cl)c2C2CC2)[nH]c2nc(-c3ccccc3)nn12` [24-1] returned a Kd at FABP5 of under 500 nM.

Turning to `O=c1cc(CN2CCc3c(Cl)cccc32)[nH]c2nc(-c3ccccc3)nn12` [6-3], the dissociation constant (Kd) on FABP5 is over 500 nM. In addition, at FABP4, the “FABP4 TdF Kd” value is listed as “B (0.5 ≦ B < 0.001 μM)”.

With `O=c1cc(COc2cccc(Cl)c2C2CCC2)[nH]c2nc(-c3ccccc3)nn12` [26-3], the dissociation constant (Kd) on FABP5 is under 500 nM. Also, at FABP4, the “FABP4 TdF Kd” value was “B (0.5 ≦ B < 0.001 μM)”.

On FABP5, `O=c1cc(CN2CCc3c(Br)cccc32)[nH]c2nc(-c3ccccc3)nn12` [1-17] yielded a Kd of over 500 nM. The “FABP4 TdF Kd” value on FABP4 is on record as “B (0.5 ≦ B < 0.001 μM)”.

For the molecule `O=c1cc(COc2cccc(Cl)c2C2CC2)[nH]c2nc(-c3ccccc3)nn12` [20-2], the Kd at FABP5 is under 500 nM. On FABP4, the “FABP4 TdF Kd” value is on record as “B (0.5 ≦ B < 0.001 μM)”.

Take `CC1(C)CCCC(OCc2cc(=O)n3nc(-c4ccccc4)nc3[nH]2)C1` (stereo not drawn) [1-152]: the Kd on FABP5 was under 500 nM. The “FABP4 TdF Kd” value at FABP4 was “B (0.5 ≦ B < 0.001 μM)”.

`O=c1cc(COc2csc(C(F)(F)F)c2)[nH]c2nc(-c3ccccc3)nn12` [1-5]: the Kd on FABP5 is under 500 nM. Also, the “FABP4 TdF Kd” value on FABP4 is reported as “B (0.5 ≦ B < 0.001 μM)”.

In the case of `CCc1ccc(OCc2cc(=O)n3nc(C(=O)OC)nc3[nH]2)cc1` [8-7], the Kd on FABP4 was over 500 nM.

On to `O=c1c(Cl)c(CN2CCCC2Cc2cccc(Cl)c2)[nH]c2nc(-c3ccccc3)nn12` (stereo not drawn) [24-5], for which the dissociation constant Kd on FABP4 is over 500 nM.

`O=C(O)C1(OCc2cc(=O)n3nc(C(F)(F)F)nc3[nH]2)CCCCC1` [54-1]: the Kd on FABP4 is over 500 nM.

For `CNc1cccc(N(C)Cc2cc(=O)n3nc(-c4ccccc4)nc3[nH]2)c1C1CC1` [19-2], the “FABP4 TdF Kd” value on FABP4 was “B (0.5 ≦ B < 0.001 μM)”.

In the case of `CC1(CNC(=O)c2c(Cl)cccc2OCc2cc(=O)n3nc(-c4ccccc4)nc3[nH]2)COC1` [47-28, 2-chloro-N-((3-methyloxetan-3-yl)methyl)-6-((7-oxo-2-phenyl-4,7-dihydro-[1,2,4]triazolo[1,5-a]pyrimidin-5-yl)methoxy)benzamide], at FABP4, the dissociation constant (Kd) is at most 1 nM.

As to `Cn1nccc1NC(=O)C1(OCc2cc(=O)n3nc(-c4ccccc4)nc3[nH]2)CCCCC1` [48-32], the “FABP4 TdF Kd” value at FABP4 is “B (0.5 ≦ B < 0.001 μM)”.

Take `CC(C)c1cccc(OCc2cc(=O)n3nc(-c4ccccc4)nc3[nH]2)c1` [1-25]: the Kd at FABP4 was over 500 nM.

Consider `O=c1cc(COc2cccc(Cl)c2CO)[nH]c2nc(-c3ccccc3)nn12` [30-2], for which the “FABP4 TdF Kd” value at FABP4 is “B (0.5 ≦ B < 0.001 μM)”.

As to `CC(C)c1ccccc1OCc1cc(=O)n2nc(-c3ccccc3)nc2[nH]1` [1-66], at FABP4, the “FABP4 TdF Kd” value is reported as “B (0.5 ≦ B < 0.001 μM)”.

Take `COc1ccc(OCc2cc(=O)n3nc(-c4ccccc4)nc3[nH]2)cc1OC` [1-41]: the dissociation constant Kd at FABP4 was over 500 nM.

With `O=C(NC1(c2cccc(Cl)c2F)CC1)C1(OCc2cc(=O)n3nc(-c4ccccc4)nc3[nH]2)CCCCC1` [48-10], the equilibrium dissociation constant (Kd) at FABP4 is at most 1 nM.

As for `CCc1ccc(CCc2cc(=O)n3nc(-c4ccccc4)nc3[nH]2)cc1` [14-3], the dissociation constant (Kd) on FABP4 was over 500 nM.

Turning to `O=C(NC1CCc2c(Cl)cccc21)C1(OCc2cc(=O)n3nc(-c4ccccc4)nc3[nH]2)CCCCC1` (stereo not drawn) [48-63], the “FABP4 TdF Kd” value at FABP4 is “B (0.5 ≦ B < 0.001 μM)”.

On to `CN(C)C(=O)C1(OCc2cc(=O)n3nc(-c4ccccc4)nc3[nH]2)CCCCC1` [48-30], for which the Kd at FABP4 was over 500 nM.

With `CC1CC(OCc2cc(=O)n3nc(-c4ccccc4)nc3[nH]2)CC(C)(C)C1` (stereo not drawn) [1-99], on FABP4, the “FABP4 TdF Kd” value was “B (0.5 ≦ B < 0.001 μM)”.

Take `O=c1cc(COc2cc(Cl)cc(Cl)c2Cl)[nH]c2nc(-c3ccccc3)nn12` [1-87]: the “FABP4 TdF Kd” value at FABP4 was “B (0.5 ≦ B < 0.001 μM)”.

Take `COC[C@H]1CCCN1C(=O)c1c(Cl)cccc1OCc1cc(=O)n2nc(-c3ccccc3)nc2[nH]1` [47-10]: the “FABP4 TdF Kd” value at FABP4 is given as “B (0.5 ≦ B < 0.001 μM)”.

As to `CCc1ccc(OCc2cc(=O)n3ncnc3[nH]2)cc1` [7-1], the dissociation constant Kd at FABP4 was over 500 nM.
